Entries after “also recorded” stand apart in the source; their conditions may differ.
Key:
AB (wild-type) zebrafish = assay: AB wild-type zebrafish swimming activity with high-dose rotenone; assay type: in vivo, Danio rerio
Description: Each symbol indicates one fish. **, p<0.01. ***, p<0.001.
EP07, 11-hydroxyprogesterone. **, p<0.01. Each symbol conveys activity of one well with n=8 animals/well in a 96-well plate, as quantified in dark-cycle analysis in the Zebrabox (Viewpoint).
Swimming activity (Zebrabox) was quantified in first five-minute periods of three consecutive dark cycles across 3 biological replicate experiments. Activity score was normalized to percent of wild-type concurrent controls. […] AB (wild-type) zebrafish had reduced swimming activity with high dose (70 nM) rotenone exposure for 4 hours on 7 dpf.
The indicated agents were added at 5 and 6 dpf, twice a day. 70 nM rotenone was added on 7 dpf. 4 hours later the larvae were transferred into a 96 well plate (1fish per well, 8 wells per condition), 96-well plates were immediately placed into NOLDUS to evaluate swim activity in repeating light-dark exposure. Swim activity effects were averaged in first 5 minutes of each light-off (‘dark’) period across all light on/off cycles.

[1] = test system: nutrient sensing signaling network (NSSN) gene expression; assay: NSSN gene expression and RNAseq KEGG pathway profiling in gas-1(fc21) worms; assay type: in vivo, C. elegans; conditions: 24 hours; for MAPK signaling pathway expression (RNAseq, KEGG): relative to DMSO-only buffer
Description: RQ, relative quantitation. […] Pathways marked with a star are also positively modulated in this same mitochondrial disease animal model by combination glucose+nicotinic acid+N-acetylcysteine triple therapy.
It is already evident that epicatechin therapy in some diseases can favorably alter the activities of central NSSN nodes, such as AMPK, that are known to regulate cell proliferation, autophagy, and mitochondrial proliferation. […] The pathways marked with a star can similarly be restored in gas-1(fc21) complex I deficient worms by combination therapy of glucose+nicotinic acid+N-acetylcysteine.

[2] = test system: gas-1(fc21) ndufs2−/− complex I disease mutant worms; assay: C. elegans gas-1(fc21) lifespan analysis; assay type: in vivo; conditions: FUDR used
Description: FIG. 2C, the Table below FIGS. 2A and 2B indicates specific values and P values calculated in Graphpad Prism v5.0 for graph shown in FIG. 2B (survival data is shown in days).
(§1) Neuromuscular activity, and lifespan were quantified in the C. elegans gas-1(fc21) ndufs2^−/− mutants. A semi-automated screening method (Mathew et al, 2016) was used to test drug treatment effects on an integrated C. elegans health endpoint of fecundity, brood size, and behavior.
(−) Epicatechin and (+) Epicatechins act through mimicry of the endogenous mitochondrial steroid 11-β-hydroxypregnenolone (11-OHP), a potent inducer of mitochondrial biogenesis. C. elegans nematode strains studied included wild-type (N2 Bristol) and gas-1(fc21) mutants. […] FIGS. 2D, 2E and 2F are graphs show a side-by-side comparison of (+)-epicatechin, (−)-epicatechin and 11-0HP on gas-1(fc-21) worm survival.

[3] = test system: gas-1(fc21) mitochondrial complex I disease worms; assay: Worm neuromuscular activity by body bend rate analysis; assay type: in vivo, C. elegans; conditions: 100 nMol
Description: FIGS. 5A and 5B: Worm neuromuscular activity as assayed by body bend rate analysis was reduced in gas-1(fc21) mitochondrial complex I disease ndufs2^−/− worms relative to wild-type (N2 Bristol) worms.
as §1

[4] = test system: FBXL4-human disease patient fibroblasts; assay: FBXL4 patient fibroblast cell death in galactose; assay type: cell-based; conditions: 20 nM; 72 hours in galactose
Experimental: (§2) Human fibroblasts were studied from a subject harboring a 1067del (p.Gly356Alafs*15) nonsense mutation in the maternal FBXL4 allele and a c. 1790A>C (p.GLn597Pro) missense mutation in the paternal FBXL4 allele (Gal et al, 2013). Fibroblasts were cultured in DMEM (1 g/L glucose, 0.8 g/L L-Glutamine, 110 mg/L Sodium Pyruvate). Light, fluorescence, confocal microscopy and transmission electron microscopy (TEM, Lavorato et al. 2017) methods were used to analyze proband fibroblasts and mitochondrial morphology at baseline and following metabolic stress induced by incubating cells for 48 hours in glucose/uridine-free media. Mitotracker green was used for fluorescence microscopy, Tom20 Antibody (Santa Cruz) and DAPI was used for confocal microscopy.

[5] = test system: Human podocytes (renal glomerular cells); assay: Human podocyte viability / cell death under rotenone complex I inhibition; conditions: for cell death caused by rotenone (45% cell death): 12.5 nM rotenone
[6] = test system: human fibroblasts from a patient with FBXL4 disease; assay: FBXL4 patient fibroblast mitochondrial content by FACS of Mitotracker Green; assay type: cell-based; conditions: for increase in cellular mitochondrial content compared to baseline: overnight incubation, data not shown; for improvement of mitochondrial content: 24 hours, galactose media
Experimental: as §2

[7] = test system: cell or animal models of primary RC dysfunction; assay: Overall observations across cell and animal models of primary RC dysfunction
Pdss2kd/kd mice = assay: Liver NAD+, NADH and NADH:NAD+ redox analysis in Pdss2kd/kd mice; assay type: in vivo; conditions: 5 μg/mL to 10 μg/mL in drinking water; 2 months
Description: FIGS. 17A-17E: Biochemical analysis of mitochondrial amount (citrate synthase activity) and NADH:NAD+ redox balance in coenzyme Q deficient Pdss2^kd/kd mice. […] Biochemical studies are shown both by sex and all grouped together, where n=number of animals studied per group.
Untreated mice included 2M and 1F.

ndufs2−/− zebrafish = ndufs2−/− zebrafish dark-induced swimming activity with low-dose rotenone (Zebrabox); assay type: in vivo, Danio rerio
[8] = test system: Pdss2kd/kd homozygous missense mutant mice; assay: Liver mitochondrial content (VDAC western blot, citrate synthase activity) in Pdss2kd/kd mice; assay type: in vivo; conditions: 5 μg/mL or 10 μg/mL in drinking water; both sexes
[9] = test system: gas-1(fc21) ndufs2−/− mutant worms; assay: In vivo terminal pharyngeal bulb fluorescence (MitoSOX, MitoTracker Green, TMRE) in gas-1(fc21) worms; set-up: species or system C. elegans
Experimental: In each panel, n conveys the number of animals studied per conditions. Bars and error bars convey mean and standard error, respectively.
Mitochondrial oxidant burden (MitoSOX Red), membrane potential (tetramethylrhodamine ethyl ester, TMRE), and mitochondrial content (MitoTracker Green FM, MTG) were performed in C. elegans at 20° C. using in vivo terminal pharyngeal bulb relative fluorescence microscopic quantitation. […] Worms were then paralyzed in situ with 5 mg/ml levamisole. Photographs were taken in a darkened room at 160× magnification with a Cool Snap cf2 camera (Nikon, Melville, N.Y.). A CY3 fluorescence cube set (MZFLIII, Leica, Bannockburn, Ill.) was used for MitoSOX and TMRE. A GFP2 filter set (Leica) was used for MitoTracker Green FM. Respective exposure times were 2 s, 320 ms, and 300 ms for each of MitoSOX, TMRE, and MitoTracker Green FM. The resulting images were background subtracted, and the nematode terminal pharyngeal bulb was manually circled to obtain mean intensity of the region by using Fiji Is Just ImageJ. Fluorescence data for each strain were normalized to its same day control to account for day-to-day variation. A minimum of 3 independent experiments of approximately 50 animals per replicate were studied per strain per dye. The significance of the difference in the mean fluorescence intensity between strains under different experimental conditions was assessed by mixed-effect ANOVA, which analyzes potential batch effect due to samples being experimentally prepared, processed, and analyzed on different days by including a batch random effect in the model. A statistical significance threshold was set at P<0.05. All statistical analyses were performed in SAS 9.3.
FIGS. 4A-4E show in vivo quantification of relative mitochondrial oxidant burden, mitochondrial content, and mitochondrial membrane potential in gas-1(fc21) complex I disease worms.

[10] = 10 nMol, 72 hours, redosing every 24 hours

SMILES: CC(=O)[C@H]1CC[C@H]2[C@@H]3CC=C4C[C@@H](O)CC[C@]4(C)[C@H]3[C@@H](O)C[C@]12C [11-β-hydroxypregnenolone]
- increase in swimming activity toward AB controls (AB (wild-type) zebrafish; 2 nM pre-treatment from 5 dpf, high-dose (70 nM) rotenone 4 hours at 7 dpf): ~25%
- swimming activity (AB (wild-type) zebrafish; 6 nM, high-dose (70 nM) rotenone): significantly improved
- MAPK signaling pathway expression (RNAseq, KEGG) [1]: uniquely and substantially modulated
- lifespan rescue compared to buffer-only treated gas-1(fc21) worms ([2]; 1 nMol): Significant lifespan rescue
- lifespan rescue compared to buffer-only treated gas-1(fc21) worms ([2]; 10 nMol): Significant lifespan rescue
- impaired neuromuscular function (body bend rate) toward wild-type [3]: protective; also recorded: significantly rescued

SMILES: Oc1cc(O)c2c(c1)O[C@@H](c1ccc(O)c(O)c1)[C@@H](O)C2 [(+) epicatechin]
- increased cell death in galactose [4]: significantly rescued
- cell death caused by rotenone (45% cell death) ([5]; 1 nM): not
- cell death caused by rotenone (45% cell death) ([5]; 10 nM): improved
- podocyte viability upon RC inhibition ([5]; 10 nM, galactose media, 25 nM rotenone, 48 hours): significantly improved
- podocyte viability upon RC inhibition ([5]; 10 nM, glucose media, 35 nM rotenone, 48 hours): significantly improved
- cell death caused by rotenone (45% cell death) ([5]; 100 nM): improved
- improvement in cell viability ([5]; 10 to 100 nanomolar, rotenone treated human cells): approximately 50%
- effectiveness on podocyte viability compared with the other enantiomer ([5]; rotenone, 48 hours): more effective than (−) epicatechin
- increase in cellular mitochondrial content compared to baseline ([6]; 1 nM): 14%
- increase in cellular mitochondrial content compared to baseline ([6]; 10 nM): 21%
- mitochondrial content ([6]; 1 nMol to 20 nMol range): significantly increased
- improvement of mitochondrial content ([6]; 1 nMol): 70%
- improvement of mitochondrial content ([6]; 10 nMol): 70%
- effectiveness of low (nanomolar range) versus higher (micromolar range) concentrations ([7]; C. elegans and human cell studies): more effective than higher
- adverse effects ([7]; cell or animal models of primary RC dysfunction): No adverse effects
- Daf-16 (FOXO) expression, downregulated in gas-1(fc21) ([1]; 10 nM): substantially upregulated
- Par-4 (LKB1) expression, downregulated in gas-1(fc21) ([1]; 10 nM): increased
- SOD2 (mnSOD) expression, upregulated in gas-1(fc21) ([1]; 10 nM, relative to wild-type levels): normalized
- MAPK signaling pathway expression (RNAseq, KEGG) [1]: uniquely and substantially modulated
- lifespan rescue compared to buffer-only treated gas-1(fc21) worms ([2]; 1 nMol): Significant lifespan rescue
- median survival ([2]; 1 nMol, buffer-only gas-1(fc21) 19 days): 23 days
- lifespan rescue compared to buffer-only treated gas-1(fc21) worms ([2]; 10 nMol): Significant lifespan rescue
- maximum survival ([2]; 10 nMol, buffer-only gas-1(fc21) 27 days): 31 days
- NAD+ deficiency / NADH:NAD+ redox imbalance in liver (Pdss2kd/kd mice): did not correct
- swimming activity (ndufs2−/− zebrafish; 100 nM, low-dose (12 nM) rotenone): significantly improved
- increase in swimming activity toward wild-type controls (ndufs2−/− zebrafish; 100 nMol pre-treatment from 5 dpf, 12 nMol rotenone at 7 dpf): ~25%
- citrate synthase activity in liver [8]: substantially increased
- improvement of mitochondrial membrane potential towards wild type levels ([9]; 10 nM, 24 hours): 62%
- improvement in mitochondrial content (MitoTracker Green) ([9]; 10 nM, 24 hours, most improved concentration): 39%
- mitochondrial content ([9]; 1 nMol, 24 hours): significantly rescued
- mitochondrial oxidant burden ([9]; 1 nMol, 24 hours): significantly rescued
- mitochondrial content ([9]; 10 nMol, 24 hours): significantly rescued
- mitochondrial membrane potential ([9]; 10 nMol, 24 hours): significantly recued
- mitochondrial oxidant burden ([9]; 10 nMol, 24 hours): significantly rescued
- mitochondrial content [9, 10]: significant rescue; also recorded: significantly rescued
- mitochondrial oxidant burden [9, 10]: complete reversal; also recorded: significantly rescued
- mitochondrial content ([9]; 100 nMol, 24 hours): significantly rescued
- mitochondrial oxidant burden ([9]; 100 nMol, 24 hours): significantly rescued
- mitochondrial oxidant burden (MitoSox) ([9]; all concentrations of 3-log order dose range, 24 hours): complete normalization
- impaired neuromuscular function (body bend rate) toward wild-type [3]: rescues; also recorded: significantly rescued

SMILES: Oc1cc(O)c2c(c1)O[C@H](c1ccc(O)c(O)c1)[C@H](O)C2 [(−) epicatechin]
- lifespan rescue compared to buffer-only treated gas-1(fc21) worms ([2]; 10 nMol): Significant lifespan rescue
- lifespan rescue compared to buffer-only treated gas-1(fc21) worms ([2]; 100 nMol): Significant lifespan rescue
- impaired neuromuscular function (body bend rate) toward wild-type [3]: significantly rescued

Source: patent publication US20250017895A1, “FLAVANOID CONTAINING COMPOSITIONS AND METHODS OF USE THEREOF FOR THE TREATMENT OF MITOCHONDRIAL DISORDERS” (priority 2021, published 2025)
